# Data from patent US20260028336A1 (Arcus Biosciences, Inc., priority 2022, published 2026).
# Target: T1, Cbl-b (Homo sapiens, UniProt Q13191)
# T1 construct: biotin (biotinylated)
# Assay: Cbl-b probe displacement HTRF binding assay
# Details: 0.4 nM biotinylated Cbl-b, 150 nM BODIPY probe
# Experimental: The affinity with which compounds of the present dislcosure bind to Cbl-b was assessed using probe displacement homologous time resolved fluorescence (HTRF) assays. […] The assays were performed in assay buffer consisting of 20 mM Hepes, 150 mM NaCl, 0.01% Triton X-100, 0.5 mM TCEP, 0.01% BSA. On the day of the assay, a 20 point, 1:2 master serial dilution of each compound was prepared in DMSO to span a final concentration range of […] to 0 nM. Two hundred nanoliters of diluted compound was added to each well of a 384-well plate. Fifteen microliters of biotinylated-Cbl-b resuspended in assay buffer were added to each well and the plate incubated for 60 minutes at room temperature prior to addition of 5 μL of BODIPY™ probe in assay buffer. […] After a further 15 minutes of incubation at room temperature, 5 μl of Streptavidin-Terbium cryptate reagent at 5-fold final concentration was added to each well of the 384-well plate. Binding of a probe to Cbl-b results in an increase of HTRF signal. […] Percentage maximum activity in each test well was calculated based on DMSO (maximum activity, 0% displacement) and no protein control wells (baseline activity, 100% displacement). Binding affinity was determined from a dose response curve fitted using a standard four parameter fit equation.
# T1 sequence (Q13191 whole entry, species assumed): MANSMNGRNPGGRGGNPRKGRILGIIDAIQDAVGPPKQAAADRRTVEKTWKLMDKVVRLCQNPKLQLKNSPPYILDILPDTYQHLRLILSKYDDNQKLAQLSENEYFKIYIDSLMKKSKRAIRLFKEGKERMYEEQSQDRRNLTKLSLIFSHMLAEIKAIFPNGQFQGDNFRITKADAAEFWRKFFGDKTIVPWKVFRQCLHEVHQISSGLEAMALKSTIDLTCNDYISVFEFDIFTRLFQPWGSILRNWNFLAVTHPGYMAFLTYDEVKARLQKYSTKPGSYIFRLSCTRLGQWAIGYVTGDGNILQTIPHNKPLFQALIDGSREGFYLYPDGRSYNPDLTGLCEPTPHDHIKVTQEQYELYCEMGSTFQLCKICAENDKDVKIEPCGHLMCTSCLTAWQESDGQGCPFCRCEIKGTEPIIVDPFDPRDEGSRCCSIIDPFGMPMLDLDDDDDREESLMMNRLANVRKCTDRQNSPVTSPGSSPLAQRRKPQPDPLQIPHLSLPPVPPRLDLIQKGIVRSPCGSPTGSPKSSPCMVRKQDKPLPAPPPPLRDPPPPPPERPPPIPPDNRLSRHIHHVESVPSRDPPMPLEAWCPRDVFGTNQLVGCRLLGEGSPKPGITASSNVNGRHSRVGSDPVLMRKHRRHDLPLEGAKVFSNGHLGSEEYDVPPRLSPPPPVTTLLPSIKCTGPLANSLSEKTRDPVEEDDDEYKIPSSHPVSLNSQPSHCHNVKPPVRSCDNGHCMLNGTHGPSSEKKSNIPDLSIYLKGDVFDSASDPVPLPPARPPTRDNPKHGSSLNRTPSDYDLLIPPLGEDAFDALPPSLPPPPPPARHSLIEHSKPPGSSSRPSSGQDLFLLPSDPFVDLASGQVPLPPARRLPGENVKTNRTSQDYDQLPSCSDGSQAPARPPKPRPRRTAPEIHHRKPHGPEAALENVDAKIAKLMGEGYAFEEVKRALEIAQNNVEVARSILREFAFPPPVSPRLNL
row,Structure (SMILES),IC50 [nM]
1,"CC(Sc1nncn1C)c1cccc(-n2cc(C3CC3)c3cc(CN4CCC[C@H](C)C4)[nH]c3c2=O)c1 (stereo partly drawn) [Example 2, 4-cyclopropyl-2-[[(3S)-3-methylpiperidin-1-yl]methyl]-6-[3-[1-[(4-methyl-1,2,4-triazol-3-yl)sulfanyl]ethyl]phenyl]-1H-pyrrolo[2,3-c]pyridin-7-one]",100 to 1000
2,"Cc1cn(-c2cccc([C@]3(c4nncn4C)C[C@@H](C)C3)c2)c(=O)c2[nH]ccc12 [Example 29, 4-methyl-6-{3-[(1r,3s)-3-methyl-1-(4-methyl-4H-1,2,4-triazol-3-yl)cyclobutyl]phenyl}-1H,6H,7H-pyrrolo[2,3-c]pyridin-7-one]",100 to 1000
3,"CC1CC(c2cccc(-n3cc(C4CC4)c4nc[nH]c4c3=O)c2)(c2nncn2C)C1 (centres unmarked) [Example 11, 7-cyclopropyl-5-{3-[(1r,3s)-3-methyl-1-(4-methyl-4H-1,2,4-triazol-3-yl)cyclobutyl]phenyl}-3H,4H,5H-imidazo[4,5-c]pyridin-4-one]",100 to 1000
4,"CC(O)c1c[nH]c2c(=O)n(-c3cccc([C@]4(c5nncn5C)C[C@H](C)C4)c3)cc(C3CC3)c12 (single isomer, unassigned) [Example 24]",100 to 1000
5,"Cn1cnnc1[C@]1(c2cccc(-n3cc(C4CC4)c4c(C(=O)O)c[nH]c4c3=O)c2)C[C@H](C)C1 (single isomer, unassigned) [Example 19, 4-Cyclopropyl-7-oxo-6-{3-[(1r,3s)-3-methyl-1-(4-methyl-4H-1,2,4-triazol-3-yl)cyclobutyl]phenyl}-1H,6H,7H-pyrrolo[2,3-c]pyridine-3-carboxylic acid]",1000 to 5000
6,"CC(=O)c1c[nH]c2c(=O)n(-c3cccc([C@]4(c5nncn5C)C[C@@H](C)C4)c3)cc(C3CC3)c12 (single isomer, unassigned) [Example 21, 3-Acetyl-4-cyclopropyl-6-{3-[(1r,3s)-3-methyl-1-(4-methyl-4H-1,2,4-triazol-3-yl)cyclobutyl]phenyl}-1H,6H,7H-pyrrolo[2,3-c]pyridin-7-one]",< 100
7,"Cn1cnnc1[C@]1(c2cccc(-n3cc(C4CC4)c4c(S(C)(=O)=O)c[nH]c4c3=O)c2)C[C@H](C)C1 (single isomer, unassigned) [Example 25, 4-Cyclopropyl-3-methanesulfonyl-6-{3-[(1r,3s)-3-methyl-1-(4-methyl-4H-1,2,4-triazol-3-yl)cyclobutyl]phenyl}-1H,6H,7H-pyrrolo[2,3-c]pyridin-7-one]",100 to 1000
8,"CC(O)c1c[nH]c2c(=O)n(-c3cccc([C@]4(c5nncn5C)C[C@@H](C)C4)c3)cc(C3CC3)c12 (single isomer, unassigned) [Example 23]",100 to 1000
9,"C[C@H]1CCCN(Cc2cc3ncn(-c4cccc([C@]5(c6nncn6C(F)F)C[C@H](OC(F)F)C5)c4)c(=O)c3[nH]2)C1 [Example 153, 2—{[(S)-3-methyl-1-piperidyl]methyl}-6-(m-{(1r,3S)-3-difluoromethoxy-1-[4-(difluoromethyl)-4H-1,2,4-triazol-3-yl]cyclobutyl}phenyl)-1,6-dihydro-1,4,6-triaza-7-indenone]",< 100
10,"CC1CC(c2cccc(-n3cc(C4CC4)c4cc(CN5CC6CC(C5)O6)[nH]c4c3=O)c2)(c2nncn2C)C1 (centres unmarked) [Example 53, 4-cyclopropyl-6-{3-[3-methyl-1-(4-methyl-4H-1,2,4-triazol-3-yl)cyclobutyl]phenyl}-2-({6-oxa-3-azabicyclo[3.1.1]heptan-3-yl}methyl)-1H,6H,7H-pyrrolo[2,3-c]pyridin-7-one]",< 100
11,"Cn1cnnc1C1(c2cccc(-n3cc(C4CC4)c4cc[nH]c4c3=O)c2)CC2(CC2)C1 [Example 10, 4-cyclopropyl-6-[3-[5-(4-methyl-1,2,4-triazol-3-yl)spiro[2.3]hexan-5-yl]phenyl]-1H-pyrrolo[2,3-c]pyridin-7-one]",100 to 1000
12,"CC1CC(c2cccc(-n3cc(C(F)(F)F)c4c(S(C)(=O)=O)c[nH]c4c3=O)c2)(c2nncn2C)C1 (mixture of isomers) [Example 139, 3-Methanesulfonyl-6-{3-[(1S,3R)-3-methyl-1-(4-methyl-4H-1,2,4-triazol-3-yl)cyclobutyl]phenyl}-4-(trifluoromethyl)-1H,6H,7H-pyrrolo[2,3-c]pyridin-7-one]",< 100
13,"CC1CC(c2cccc(-n3cc(C4CC4)c4cc(CN5CCC[C@H](C)C5)n(C)c4c3=O)c2)(c2nncn2C)C1 (stereo partly drawn) [Example 5, 4-cyclopropyl-1-methyl-6-[3-[3-methyl-1-(4-methyl-1,2,4-triazol-3-yl)cyclobutyl]phenyl]-2-[[(3S)-3-methylpiperidin-1-yl]methyl]pyrrolo[2,3-c]pyridin-7-one]",> 5000
14,"Cn1cnnc1[C@]1(c2cccc(-n3ccc4cc[nH]c4c3=O)c2)C[C@@H](C)C1 (single isomer, unassigned) [Example 31, 6-{3-[(1s,3r)-3-methyl-1-(4-methyl-4H-1,2,4-triazol-3-yl)cyclobutyl]phenyl}-1H,6H,7H-pyrrolo[2,3-c]pyridin-7-one]",1000 to 5000
15,"CC(c1ccnc(-n2cc(C3CC3)c3cc(CN4CCC[C@H](C)C4)[nH]c3c2=O)c1)c1nncn1C (stereo partly drawn) [Example 157, 2—{[(S)-3-methyl-1-piperidyl]methyl}-4-cyclopropyl-6-{4-[1-(4-methyl-4H-1,2,4-triazol-3-yl)ethyl]-2-pyridyl}-1,6-dihydro-1,6-diaza-7-indenone]",< 100
16,"Cn1cnnc1[C@]1(c2cccc(-n3cc(C(F)(F)F)c4c(S(C)(=O)=O)c[nH]c4c3=O)c2)C[C@H](C)C1 [Example 138, 3-Methanesulfonyl-6-{3-[(1R,3S)-3-methyl-1-(4-methyl-4H-1,2,4-triazol-3-yl)cyclobutyl]phenyl}-4-(trifluoromethyl)-1H,6H,7H-pyrrolo[2,3-c]pyridin-7-one]",< 100
17,"Cn1cnnc1[C@]1(c2cccc(-n3cc(C4CC4)c4c(C(F)(F)F)c[nH]c4c3=O)c2)C[C@H](C)C1 [Example 18, 4-Cyclopropyl-6-{3-[(1r,3s)-3-methyl-1-(4-methyl-4H-1,2,4-triazol-3-yl)cyclobutyl]phenyl}-3-(trifluoromethyl)-1H,6H,7H-pyrrolo[2,3-c]pyridin-7-one]",100 to 1000
18,"CC1CC(c2cccc(-n3cc(C4CC4)c4c(CN5CCC[C@H](C)C5)c[nH]c4c3=O)c2)(c2nncn2C)C1 (mixture of isomers) [Example 15, 4-Cyclopropyl-6-{3-[3-methyl-1-(4-methyl-4H-1,2,4-triazol-3-yl)cyclobutyl]phenyl}-3-{[(3S′)-3-methylpiperidin-1-yl]methyl}-1H,6H,7H-pyrrolo[2,3-c]pyridin-7-one]",100 to 1000
19,"Cn1cncc1-c1c[nH]c2c(=O)n(-c3cccc([C@]4(c5nncn5C)C[C@H](C)C4)c3)cc(C3CC3)c12 (single isomer, unassigned) [Example 35]",< 100
20,"Cn1cnnc1C1(c2cccc(-n3cc(C4CC4)c4cc(CNC5(C)CC(F)(F)C5)[nH]c4c3=O)c2)CC(F)(F)C1 [Example 81, 4-cyclopropyl-6-{3-[3,3-difluoro-1-(4-methyl-4H-1,2,4-triazol-3-yl)cyclobutyl]phenyl}-2-{[(3,3-difluoro-1-methylcyclobutyl)amino]methyl}-1H,6H,7H-pyrrolo[2,3-c]pyridin-7-one]",< 100
21,"Cc1c[nH]c2c(=O)n(-c3cccc([C@]4(c5nncn5C)C[C@@H](C)C4)c3)cc(C3CC3)c12 [Example 17, 4-Cyclopropyl-3-methyl-6-{3-[(1r,3s)-3-methyl-1-(4-methyl-4H-1,2,4-triazol-3-yl)cyclobutyl]phenyl}-1H,6H,7H-pyrrolo[2,3-c]pyridin-7-one]",100 to 1000
22,"Cn1cnnc1[C@]1(c2cccc(-n3ccc4c(C5CC5)c[nH]c4c3=O)c2)C[C@H](C)C1 (single isomer, unassigned) [Example 13, 3-cyclopropyl-6-{3-[(1r,3s)-3-methyl-1-(4-methyl-4H-1,2,4-triazol-3-yl)cyclobutyl]phenyl}-1H,6H,7H-pyrrolo[2,3-c]pyridin-7-one]",100 to 1000
23,"CC1CC(c2cccc(-n3cc(C4CC4)c4cc(CN5CCC[C@H](C(F)(F)F)C5)[nH]c4c3=O)c2)(c2nncn2C)C1 (some centres unmarked) [Example 48, 4-cyclopropyl-6-{3-[3-methyl-1-(4-methyl-4H-1,2,4-triazol-3-yl)cyclobutyl]phenyl}-2-{[(3S′)-3-(trifluoromethyl)piperidin-1-yl]methyl}-1H,6H,7H-pyrrolo[2,3-c]pyridin-7-one]",< 100
24,"CN1CCC(c2cc3c(C4CC4)cn(-c4cccc([C@]5(c6nncn6C)C[C@@H](C)C5)c4)c(=O)c3[nH]2)CC1 [Example 33, 4-cyclopropyl-2-(1-methylpiperidin-4-yl)-6-{3-[(1r,3s)-3-methyl-1-(4-methyl-4H-1,2,4-triazol-3-yl)cyclobutyl]phenyl}-1H,6H,7H-pyrrolo[2,3-c]pyridin-7-one]",100 to 1000
25,"Cn1cnnc1[C@]1(c2cccc(-n3ccc4c(C#N)c[nH]c4c3=O)c2)C[C@H](C)C1 (single isomer, unassigned) [Example 27, 7-Oxo-6-{3-[(1r,3s)-3-methyl-1-(4-methyl-4H-1,2,4-triazol-3-yl)cyclobutyl]phenyl}-1H,6H,7H-pyrrolo[2,3-c]pyridine-3-carbonitrile]",100 to 1000
26,"Cn1cnnc1[C@]1(c2cccc(-n3ccc4cc[nH]c4c3=O)c2)C[C@H](C)C1 (single isomer, unassigned) [Example 30, 6-{3-[(1r,3s)-3-methyl-1-(4-methyl-4H-1,2,4-triazol-3-yl)cyclobutyl]phenyl}-1H,6H,7H-pyrrolo[2,3-c]pyridin-7-one]",1000 to 5000
